In paper PMC12091851, “Replacing a Cereblon Ligand by a DDB1 and CUL4 Associated Factor 11 (DCAF11) Recruiter Converts a Selective Histone Deacetylase 6 PROTAC into a Pan‐Degrader” (Chemmedchem, 2025):

Biological target: HDAC1 (Homo sapiens, UniProt Q13547)
Test: Simple Western immunoassay, HDAC1 levels in U-87MG cell lysates
Type: cell-based
Design: endogenous in cells; host or cells: MM.1S
Conditions: 10 μM, 24 h
Experimental: Figure S5. Analysis of HDAC1 and 6 degradation in U-87MG cells. Simple western immunoassay analysis of U-87MG cell lysates. The cells were treated with the indicated compound (10 µM) or vehicle (DMSO) for 24 h. Top: Quantification of HDAC levels, presented as mean ± standard deviation of n = 2 biological replicates; Significance compared to vehicle: ns = p≥0.05 and *** = p≤0.001. Bottom:
Representative images of n = 2 biological replicates.
(1 picture or pasted object on this page, not shown here)
2. Biological Experiments
No unexpected or unusually high safety hazards were encountered.
The human multiple myeloma cell line MM.1S (CRL-2974) was obtained from American Type Culture Collection (ATCC, Manassas, VA, USA). […]
Louis, MO, USA) according to manufacturer´s instructions. Protein content was determined by Pierce™ BCA Protein Assay Kit (Catalog# 23225, Thermo Fisher Scientific Inc.) according to manufacturer´s guidelines. […]
Fluorescence Separation 8x25 Capillary Cartridges (Catalog# SM-FL004-1, Protein Simple, Bio-Techne, Minneapolis, MN, USA) were used for separation and the Anti-Mouse Detection Module (Catalog# DM-002, Protein Simple) was used for detection with addition of 20x Anti-Rabbit HRP […]
Conjugate (Catalog# 043-426, Protein Simple) according to manufacturer´s instructions. […] Evaluation and quantification was performed with the compass software (6.2.0, Protein Simple). […]

Sequence of HDAC1 (Q13547 whole entry): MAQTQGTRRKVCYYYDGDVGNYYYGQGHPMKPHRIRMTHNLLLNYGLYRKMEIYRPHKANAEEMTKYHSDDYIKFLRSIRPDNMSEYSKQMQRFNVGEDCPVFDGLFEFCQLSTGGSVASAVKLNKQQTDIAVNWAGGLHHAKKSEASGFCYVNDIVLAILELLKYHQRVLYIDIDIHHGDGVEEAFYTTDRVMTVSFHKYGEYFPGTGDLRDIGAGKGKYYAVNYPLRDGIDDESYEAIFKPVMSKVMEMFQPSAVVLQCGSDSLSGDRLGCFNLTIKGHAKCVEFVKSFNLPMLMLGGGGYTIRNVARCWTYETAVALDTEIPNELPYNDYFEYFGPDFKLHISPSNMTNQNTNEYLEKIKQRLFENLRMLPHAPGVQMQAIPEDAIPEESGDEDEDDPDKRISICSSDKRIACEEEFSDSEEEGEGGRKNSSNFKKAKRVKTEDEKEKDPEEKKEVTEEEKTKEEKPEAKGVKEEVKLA

HDAC1 degradation in U-87MG cells | Compound
significant HDAC1 and 6 degradation | O=C(CCCCCCNC(=O)c1ccc(NC(=O)CCCCCCCCCCCN(C(=O)CCl)C(C(=O)NCc2ccccc2)c2ccc(Cl)c(Cl)c2)cc1)NO (centres unmarked) [Compound 1j]
significant degradation for HDAC1 | O=C(CCCCCCNC(=O)c1ccc(N(C(=O)CCl)C(C(=O)NCc2ccccc2)c2ccc(Cl)c(Cl)c2)cc1)NO (centres unmarked) [Compound 2]
